Data: patent publication US20250236617A1, “BICYCLIC TETRAHYDROTHIAZEPINE DERIVATIVES” (Hoffmann-La Roche Inc., priority 2022, published 2025)

What was measured:
[1] = molecular target: DGKzeta (hDGKzeta(1-928)-N-His) (Homo sapiens (Human), UniProt Q13574); assay: In vitro DGK inhibition assay, ADP-Glo (in house), DGKzeta; format: biochemical; details: DLG liposomes, 50 μM ATP, 2 nM enzyme, 1 hour reaction
Procedure: (§1) DGK α and ζ kinases use ATP to phosphorylate the substrate 1,2-dilauroyl-sn-glycerol (DLG, incorporated in the liposomes). ATP is converted to ADP as a result of this enzymatic reaction.
(§2) After the kinase reaction, an ATP-depletion reagent is added to terminate the kinase reaction and deplete any remaining ATP, leaving only ADP. Second, a detection reagent is added to simultaneously convert ADP to ATP and allow the newly synthesized ATP to be converted to light using a coupled luciferase/luciferin reaction.
(§3) Purification of both enzymes was performed as previously described by Takahashi et al., PeerJ, 2018 (Takahashi, D.; Sakane, F. Expression and purification of human diacylglycerol kinase alpha from baculovirus-infected insect cells for structural studies. PeerJ 2018, 6, No. e5449).
(§4) A concentrated liposome solution was prepared in assay buffer without DTT and BSA: 2 mM of DLG in 21 mM of total liposome (2 mM DLG/8 mM PS/11 mM PC). The reaction mixtures contain the assay buffer with a final DLG concentration of 125 uM ATP concentrations of 25 μM (for DGKA assay) or 50 μM (for DGKZ assay). The reactions were started by addition of DGK α and ζ kinases at 4 nM and 2 nM final concentrations, respectively. After 1 hour reaction, the amount of ADP formed was detected with the ADP-Glo kinase assay (Promega) according to the manufacturer instructions. Compounds were added in 11-points dose response, starting at […], 1:3 dilutions, with a final DMSO concentration of 2%. The multidrop combi was used as a liquid handler and luminescence was read with 0.5 s by the envision reader (PE).

[2] = system: primary human T-cells; assay: T-cell proliferation assay (CellTiter-Glo); format: cell-based; details: CD3 condition; for Emax proliferation (% activation): 5 days, 20 μM reference compound A1 = 100%; for EC50: Homo sapiens, T-cell, 120 h, proliferation after 5 days, CellTiter-Glo, read-out: Tcell Proliferation CD3 EC50
Procedure: For coating of plates, PBS++ only or PBS++ with CD3 antibody (concentration depending on donor and determined by CD3 titrations) is added 100 μl/well to Poly-D Lysine coated 96-well plates. Plates are sealed and incubated at room temperature for 3 hours on a table-top rocking platform. After incubation, plates are washed once with PBS−− and filled with 40 μl/well culture medium only. Compounds are then added (see next section) to medium only plates. After 3 hours of culturing the T-cells, cells are filtered through a cell strainer (Miltenyi Biotech, #130-041-407), counted again and concentration is adjusted to 1.25 Mio/ml.
Cells are then seeded 80 μl/well to the 40 μl/well including dispensed compounds according to plate layout. By adding cells, compounds are further diluted 1:3, and resulting in 100 k cells/120 μl/well. After 48 hours 40 μl of supernatant is collected carefully from the top while not disturbing the cells. Cells are assessed for proliferation 5 days later by measuring […] using CellTiterGlo (Promega).
Compounds were added in a 5 or 6 pt dose response with the Tecan D300e Digital Dispenser, all conditions 3 times more concentrated than the end-concentration, since cells are added afterwards (80 μl cells to 40 μl prepared medium with treatment). […] The positive control was the reference compound A1 that was added in a dose response as well, additionally to 3 wells of only 20 μM representing the positive stimulator control. All wells were normalized with DMSO to a final concentration of 0.6% (0.2% end-concentration).
After 5 days, for detection of ATP which is directly proportional to the number of cells present per well, the CellTiter-Glo® 2.0 Reagent is used. After visual control for toxicity or precipitations of the tested compounds, the plates are equilibrated to room temperature for 45 minutes. CellTiter-Glo® 2.0 Reagent is equilibrated to room temperature as well. After equilibration, an equal amount of CellTiter-Glo reagent is added to the cells (80 μl/well) with an electronic multichannel pipette. Plates are placed on a rocking platform for 15 minutes at room temperature. After incubation, the bottom of the plates is sealed with backing tape. Luminescence is measured with PHERAstar FSX (interval time 0.5 sec, gain 3000, focal height 15 mm) and exported as CSV file for analysis in Genedata screener.
Calculations and Data Reporting CD3 and PBS plates were analysed separately in Genedata Screener using Roche Normalization PCT_POS_CTRL with DMSO set as Neutral Control and 20 μM of the reference compound A1 set as Stimulator Control/100%.
For CD3 conditions EC50 and Emax of the fitted sigmoidal curve were reported. If no curve could be fitted, the EC50 was reported as blank field and the Emax was based on individual data points. […] Compounds which activate unstimulated cells (see IL2 measurements) or compounds which negatively affected viability were flagged.

[3] = molecular target: DGKalpha (hDGKalpha(1-735)-N-His) (Homo sapiens (Human), UniProt P23743); assay: In vitro DGK inhibition assay, ADP-Glo (in house), DGKalpha; format: biochemical; details: DLG liposomes, 25 μM ATP, 4 nM enzyme, 1 hour reaction
Procedure: as §1, §2, §3, §4

[4] = system: primary human T-cells; assay: IL2 secretion measurements in CD3-stimulated T-cells; format: cell-based; details: CD3 condition; for Emax IL2 (% activation): 24 hours, 20 μM reference compound A1 = 100%; for EC50: Homo sapiens, T-cell, IL2 secretion after 24 hours, read-out: Tcell IL2 CD3 EC50
Procedure: As readouts for T-cell activation, 1L2 secretion after 24 hours and proliferation after 5 days was measured. Increases in 1L2 secretion and proliferation upon compound treatment were assessed as the % of the maximum of reference compound A1. WO 2016/139181 discloses reference compound A1 as example 70. As a counter screen and to make sure that no unwanted TCR-independent activation was triggered, PBS conditions were run for all compounds.
Expanded primary human T-cells were thawed and cultured in RPMI 1640 (Gibco, #61870-010)+5% human serum (HS, Sigma, #H3667)+1 mM Sodium Pyruvate (Gibco, #11360-039)+50 μM 2-mercaptoethanol (Gibco, #31350-010) and 1× Pen-Strep (Life Technologies, #15140122) medium at density of 2 Mio/ml for 3 hours in 5% CO2, 37° C. and 95% humidity. For coating of plates, […] or PBS++ with CD3 antibody (concentration depending on donor and determined by CD3 titrations) was added 100 μl/well to Poly-D Lysine coated 96-well plates. Plates were sealed and incubated at room temperature for 3 hours on a table-top rocking platform. After incubation, plates were washed once with PBS−− and filled with 40 μl/well culture medium only. Compounds were then added (see next section) to medium only plates. After 3 hours of culturing the T-cells, cells were filtered through a cell strainer (Miltenyi Biotech, #130-041-407), counted again and concentration was adjusted to 1.25 Mio/ml.
Cells were then seeded 80 μl/well to the 40 μl/well including dispensed compounds according to plate layout. By adding cells, compounds were further diluted 1:3, and resulting in 100 k cells/120 μl/well. After 24 hours 40 μl of supernatant was collected carefully from the top while not disturbing the cells and transferred into a round bottom 96 well plate. Collected and frozen supernatant was used for detection of IL2 using the IL-2 Human ProQuantum Immunoassay Kit (Invitrogen) or using the Human IL-2 ELISA Kit (Thermo Fisher).
Compounds were added in a 5 or 6 pt dose response with the Tecan D300e Digital Dispenser, all conditions 3 times more concentrated than the end-concentration, since cells are added afterwards (80 μl cells to 40 μl prepared medium with treatment). The DR was starting at 20 μM or 10 μM final top concentration and a dilution factor of 3.333. The positive control was the reference compound A1 that was added in a dose response as well, additionally to 3 wells of only 20 μM representing the positive stimulator control. All wells were normalized with DMSO to a final concentration of 0.6% (0.2% end-concentration).
The immunoassay is done following the manufacturer's manual (Invitrogen, #A35603). Additional information: For the immunoassay, MicroAmp™ EnduraPlate™ Optical 384-Well plates are used. Frozen supernatant is thawed and centrifuged for 5 minutes at 1000×g, both steps at 4° C. After centrifugation, required sample amount is taken from the top, and in a separate LightCycler V-bottom plate (working plate) diluted with assay dilution buffer, dilution factor depending on the PBS or CD3 condition but at least 1:3. IL-2 standard and blanks are prepared in the same V-bottom plate, standard with a range of […] (extended version). After preparation, 5 μl of sample dilutions or standard/blanks are transferred to the optical 384-well plate (assay plate) and the 10 μl reaction protocol is being followed. For measurement, the QuantStudio 12K Flex system is used. Raw data is extracted and IL-2 concentrations are calculated with the Thermo Fisher online app (apps.thermofisher.com/apps/proquantum).
ELISA is done following the manufacturer's manual (Thermo Fisher Scientific, #88-7025-88). Additional information: For the ELISA Nunc MaxiSorp 96 well plates are used. Frozen supernatant is thawed and centrifuged for 5 minutes at 1000×g, both steps at 4° C. […]

DGKalpha (hDGKalpha(1-735)-N-His), sequence (P23743 whole entry): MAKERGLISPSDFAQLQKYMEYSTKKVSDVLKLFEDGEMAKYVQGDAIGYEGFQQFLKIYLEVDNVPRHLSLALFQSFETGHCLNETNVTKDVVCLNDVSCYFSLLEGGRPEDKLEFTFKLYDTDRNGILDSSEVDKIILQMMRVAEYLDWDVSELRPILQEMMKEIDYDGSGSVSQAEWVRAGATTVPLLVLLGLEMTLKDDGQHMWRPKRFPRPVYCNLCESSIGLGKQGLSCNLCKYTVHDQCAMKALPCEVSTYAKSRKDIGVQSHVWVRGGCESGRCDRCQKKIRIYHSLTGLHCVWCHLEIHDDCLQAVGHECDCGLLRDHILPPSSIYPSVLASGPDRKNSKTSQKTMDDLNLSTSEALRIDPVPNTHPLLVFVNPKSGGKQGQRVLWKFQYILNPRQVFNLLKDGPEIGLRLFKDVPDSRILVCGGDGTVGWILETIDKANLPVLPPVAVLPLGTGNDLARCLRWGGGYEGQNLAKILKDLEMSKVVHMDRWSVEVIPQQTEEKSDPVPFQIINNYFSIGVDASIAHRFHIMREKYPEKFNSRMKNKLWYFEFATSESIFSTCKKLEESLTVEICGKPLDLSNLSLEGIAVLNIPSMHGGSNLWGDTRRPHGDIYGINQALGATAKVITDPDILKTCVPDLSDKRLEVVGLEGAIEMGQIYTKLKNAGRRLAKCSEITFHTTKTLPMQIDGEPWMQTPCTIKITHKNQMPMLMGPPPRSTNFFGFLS
DGKzeta (hDGKzeta(1-928)-N-His), sequence (Q13574 whole entry): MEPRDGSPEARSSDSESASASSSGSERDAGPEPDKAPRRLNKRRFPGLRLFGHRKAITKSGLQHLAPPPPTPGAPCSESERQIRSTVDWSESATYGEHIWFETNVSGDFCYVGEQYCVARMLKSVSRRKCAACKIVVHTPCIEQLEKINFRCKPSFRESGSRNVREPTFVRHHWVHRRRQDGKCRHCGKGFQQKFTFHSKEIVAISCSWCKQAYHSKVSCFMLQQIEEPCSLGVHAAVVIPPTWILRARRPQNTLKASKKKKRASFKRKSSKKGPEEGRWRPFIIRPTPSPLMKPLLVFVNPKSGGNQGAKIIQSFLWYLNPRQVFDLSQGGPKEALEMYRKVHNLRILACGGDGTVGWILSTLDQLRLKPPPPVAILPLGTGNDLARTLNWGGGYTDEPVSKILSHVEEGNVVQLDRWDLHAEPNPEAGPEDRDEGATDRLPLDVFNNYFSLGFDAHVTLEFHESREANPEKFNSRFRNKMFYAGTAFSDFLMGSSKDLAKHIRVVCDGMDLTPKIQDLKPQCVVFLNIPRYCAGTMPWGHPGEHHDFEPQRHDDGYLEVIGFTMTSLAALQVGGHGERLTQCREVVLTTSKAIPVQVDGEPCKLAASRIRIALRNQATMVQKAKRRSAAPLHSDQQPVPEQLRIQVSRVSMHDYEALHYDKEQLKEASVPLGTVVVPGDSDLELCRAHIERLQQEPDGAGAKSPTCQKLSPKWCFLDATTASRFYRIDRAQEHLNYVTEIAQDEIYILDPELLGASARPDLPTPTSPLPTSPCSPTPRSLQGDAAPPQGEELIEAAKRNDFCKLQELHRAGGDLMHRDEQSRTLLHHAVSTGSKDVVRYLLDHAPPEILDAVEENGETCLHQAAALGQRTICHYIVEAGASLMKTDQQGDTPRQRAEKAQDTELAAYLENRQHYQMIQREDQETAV

Row | Compound | IC50 [1] | Emax proliferation (% activation) [2] | EC50 [2] | IC50 [3] | Emax IL2 (% activation) [4] | EC50 [4]
1 | COc1ccc(-c2ccc(CN3C(=O)[C@@H](N)CS(=O)(=O)c4cc(F)c(-c5ccc(C(C)C)nc5)cc43)cc2)cc1 [Example 29, (3R)-3-amino-8-fluoro-7-(6-isopropyl-3-pyridyl)-5-[[4-(4-methoxyphenyl)phenyl]methyl]-1,1-dioxo-2,3-dihydro-1λ6,5-benzothiazepin-4-one] | 13.6 µM | 38 % activation | 0.071 µM | 18.8 µM | 110 % activation | 0.453 µM
2 | CC(C)(C)c1cc(-c2cc3c(cc2F)S(=O)(=O)C[C@H](N)C(=O)N3Cc2ccc(-c3ccc(C(F)(F)F)cn3)cc2)cnn1 [Example 32, (3R)-3-amino-7-(6-tert-butylpyridazin-4-yl)-8-fluoro-1,1-dioxo-5-[[4-[5-(trifluoromethyl)-2-pyridyl]phenyl]methyl]-2,3-dihydro-1λ6,5-benzothiazepin-4-one] | 3.21 µM | 164 % activation | 0.439 µM | 13 µM | 53 % activation | 0.966 µM
3 | COc1ccc(-c2ccc(CN3C(=O)[C@@H](N)CS(=O)(=O)c4cc(F)c(-c5cncc(Cl)c5)cc43)cc2)cc1 [Example 27, (3R)-3-amino-7-(5-chloro-3-pyridyl)-8-fluoro-5-[[4-(4-methoxyphenyl)phenyl]methyl]-1,1-dioxo-2,3-dihydro-1λ6,5-benzothiazepin-4-one] | 6.5 µM | 111 % activation | 0.308 µM | 41.2 µM | 243 % activation | 0.997 µM
4 | CC(C)(C)c1nncc(-c2cc3c(cc2F)S(=O)(=O)C[C@H](N)C(=O)N3Cc2ccc(-c3noc(C(F)(F)F)n3)cc2)n1 [Example 36, (3R)-3-amino-8-fluoro-1,1-dioxo-7(3R)-3-amino-7-(3-tert-butyl-1,2,4-triazin-5-yl)-8-fluoro-1,1-dioxo-5-[[4-[5-(trifluoromethyl)-1,2,4-oxadiazol-3-yl]phenyl]methyl]-2,3-dihydro-1λ6,5-benzothiazepin-4-one] | 1.5 µM | 108 % activation | 1.35 µM | 24.5 µM | 88 % activation | 1.56 µM
5 | COc1ccc(-c2ccc(CN3C(=O)[C@@H](N)CS(=O)(=O)c4cc(F)c(-c5cncc(C(C)(C)C)c5)cc43)cc2)cc1 [Example 30, (3R)-3-amino-7-(5-tert-butyl-3-pyridyl)-8-fluoro-5-[[4-(4-methoxyphenyl)phenyl]methyl]-1,1-dioxo-2,3-dihydro-1λ6,5-benzothiazepin-4-one] | 2.6 µM | 177 % activation | 0.333 µM | 29.1 µM | 100 % activation | 0.327 µM
6 | N[C@H]1CS(=O)(=O)c2cc(F)c(-c3cncc(C(F)(F)F)c3)cc2N(Cc2ccc(-c3noc(C(F)(F)F)n3)cc2)C1=O [Example 24, (3R)-3-amino-8-fluoro-1,1-diketo-5-[4-[5-(trifluoromethyl)-1,2,4-oxadiazol-3-yl]benzyl]-7-[5-(trifluoromethyl)-3-pyridyl]-2,3-dihydro-1λ6,5-benzothiazepin-4-one] | 23.7 µM | 141 % activation | 0.699 µM | 55.2 µM | 235 % activation | 1.94 µM
7 | CC(C)(C)c1cc(-c2cc3c(cc2F)S(=O)(=O)C[C@H](N)C(=O)N3Cc2ccc(-c3noc(C(F)(F)F)n3)cc2)cnn1 [Example 34, (3R)-3-amino-7-(6-tert-butylpyridazin-4-yl)-8-fluoro-1,1-dioxo-5-[[4-[5-(trifluoromethyl)-1,2,4-oxadiazol-3-yl]phenyl]methyl]-2,3-dihydro-1λ6,5-benzothiazepin-4-one] | 7.56 µM | 127 % activation | 0.361 µM | 13.4 µM | 96 % activation | 1.4 µM
